Some results are limits rather than exact numbers.

Data set [1] addresses T1, Human Peroxisome Proliferator-Activated Receptor (PPAR)α (Homo sapiens, UniProt Q07869).
T1 construct: expressed in transfected cells
T1 sequence (Q07869 239-466 limits assumed): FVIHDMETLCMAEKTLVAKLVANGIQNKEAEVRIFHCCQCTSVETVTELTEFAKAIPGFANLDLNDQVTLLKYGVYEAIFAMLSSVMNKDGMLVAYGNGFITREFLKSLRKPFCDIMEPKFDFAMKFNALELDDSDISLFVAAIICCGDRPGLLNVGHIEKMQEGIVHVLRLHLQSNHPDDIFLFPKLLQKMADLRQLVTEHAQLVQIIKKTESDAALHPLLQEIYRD
Description: Transactivation test for human PPARα (GAL4-hPPARαLBD luciferase reporter in CV-1 cells). Format: cell-based. Conditions: for EC50: CV-1 cells, GAL4-hPPARαLBD, luciferase activity after 24 hr, read-out: transactivation action (EC50, nmol/l). From the text:
Transactivation Test for Human Peroxisome Proliferator-Activated Receptor (PPAR)α
CV-1 cells (CCL-70, manufactured by Dainippon Pharma Co., Ltd.) cultured in Dulbecco's Modified Eagle Medium (DMEM) containing 10% fetal bovine serum (FBS) were transfected, using Lipofectamine 2000 (manufactured by Invitrogen), with pBIND vector (manufactured by Promega) that expresses a fusion protein of a DNA binding region of a yeast transcription factor (GAL4) and a human PPARα ligand binding region (GAL4-hPPARαLBD, manufactured based on Diabetes 47: 1841-1847, 1998), and an internal standard renilla luciferase, and GAL4 responsive TK vector that expresses reporter firefly luciferase (manufactured by Promega). 24 hr later, the medium was changed to a serum free medium containing a test compound, and the luciferase activity after 24 hr was measured.
In general terms: In a reporter assay the amount or activity of a reporter protein is the signal.

Data set [2] concerns normal rats. The data set is described as follows: Blood triglyceride (TG)-lowering action in normal rats. The class given is in vivo. Conditions: normal male SD rats; for TG-lowering action: 0.01 mg/kg; for TG lowering rate: p.o., once a day for 4 days, non-fasting. On the procedure: 1) Blood Triglyceride (TG)-Lowering Action in Normal Rats
7 to 9-week-old male SD rats (manufactured by SEAC Yoshitomi, Ltd.) were used for the test. A test compound and a control compound (GW-9578: J. Med. Chem. 1999, 42, 3785-3788) were dissolved or suspended in 1% ethanol, 0.05% Tween80 (final concentration), and 0.5% hydroxypropylmethyl cellulose (HPMC) was added to adjust to a given concentration. The prepared solution was orally administered once a day for 4 days. After administration for 4 days, blood samples were collected from the jugular vein under non-fasting condition and blood TG was measured by an enzyme method. The lowering rate was calculated by determining the rate of a value obtained by subtracting the average blood TG of a drug administration group from the average blood TG of a vehicle administration group, to the average blood TG of the vehicle administration group.

Data set [3] is described as follows: Metabolizing isoform identification test (oxidative metabolism by microsome), human liver microsome. The class given is in vitro ADME. Conditions: for oxidative metabolism by human liver microsome: 14C-labeled test compound 2 μmol/L, 0.5 mg protein/mL, 37° C., 20 min. On the procedure:
(§1) Metabolizing Isoform Identification Test (Oxidative Metabolism by Microsome)
(§2) As a reaction mixture for the CYP isoform identification, a reaction mixture containing microsome [^14C-labeled test compound (2 μmol/L), microsome (human liver microsome at 0.5 mg protein/mL or microsome expressing CYP at 50 pmol CYP/mL (Control microsome, CYP1A2, CYP2A6, CYP2B6, CYP2C8, CYP2C9, CYP2C19, CYP2D6, CYP2E1 or CYP3A4)), EDTA (0.05 mmol/L) and Na—K phosphate buffer (pH 7.4, 0.1 mol/L)] was prepared and, after preincubation at 37° C. for 5 min, a solution of the NADPH generating system [β-NADP+ (0.5 mmol/L), glucose-6-phosphate (G-6-P) (5.0 mmol/L), magnesium chloride (5.0 mmol/L) and G-6-P DH (1.0 unit/mL)] was added to start the reaction. For CYP expressing microsomes for CYP2A6 and CYP2C9, Tris-HCl buffer (pH 7.4, 0.1 mol/L) was used instead of Na—K phosphate buffer (pH 7.4, 0.1 mol/L).
(§3) These reaction mixtures were incubated at 37° C. for 20 min, and a 3-fold amount of ethanol was added to the reaction mixtures to terminate the reaction. To the reaction mixture was added a predetermined amount of an unlabeled metabolite mixed solution, and the mixture was stirred (about 5 min), centrifuged (4° C., 3000 rpm, 10 min) and the supernatant was collected. To the residue was added a 3-fold amount of ethanol relative to the reaction mixture, and the mixture was stirred (about 5 min), and centrifuged (4° C., 3000 rpm, 10 min). The supernatant was collected and combined with the supernatant collected earlier, and the solvent was evaporated under a nitrogen stream at about 40° C. To the residue was added a predetermined amount of HPLC mobile phase or suitable solvent, and the mixture was stirred and used as an HPLC sample. The sample was injected into HPLC and a radiochromatogram was obtained. From the obtained radiochromatogram, the metabolism activity and metabolite generating activity of the ^14C-labeled test compound was calculated.
(In general: Microsomes from liver hold many membrane-bound enzymes, among them those of drug oxidation.)

Data set [4] deals with T2, CYP2C9 (Homo sapiens, UniProt P11712). Description: Metabolizing isoform identification test, microsome expressing CYP2C9. Format: in vitro ADME. As to conditions: microsome expressing CYP at 50 pmol CYP/mL, 2 μmol/L, 37° C., 20 min. On the procedure:
as §1, §2
(§4) These reaction mixtures were incubated at 37° C. for 20 min, and a 3-fold amount of ethanol was added to the reaction mixtures to terminate the reaction. To the reaction mixture was added a predetermined amount of an unlabeled metabolite mixed solution, and the mixture was stirred (about 5 min), centrifuged (4° C., 3000 rpm, 10 min) and the supernatant was collected. […] From the obtained radiochromatogram, the metabolism activity and metabolite generating activity of the ^14C-labeled test compound was calculated.

Data set [5] concerns the target CYP3A4 (Homo sapiens, UniProt P08684). Description: Metabolizing isoform identification test, microsome expressing CYP3A4. Format: in vitro ADME. Conditions: microsome expressing CYP at 50 pmol CYP/mL, 2 μmol/L, 37° C., 20 min. How it is done:
as §1, §2, §4

Data set [6] has as its target CYP2C19 (Homo sapiens, UniProt P33261). The data set is described as follows: Metabolizing isoform identification test, microsome expressing CYP2C19. Format: in vitro ADME. As to conditions: microsome expressing CYP at 50 pmol CYP/mL, 2 μmol/L, 37° C., 20 min. On the procedure:
as §1, §2, §4

Data set [7] concerns the target T2, CYP2C9. Description: Investigation using an inhibitor (Sulfaphenazole) in human liver microsome. The class given is in vitro ADME. As to conditions: Sulfaphenazole 10 μmol/L, test compound 0.2 and 2 μmol/L. The arrangement: human liver microsome (0.5 mg protein/mL); from tissue; host or cells: human liver microsome. How it is done: On the other hand, as a reaction mixture for studying inhibitors, [^14C-labeled test compound (0.2 μmol/L and 2 μmol/L), inhibitor solution (Sulfaphenazole) (10 μmol/L), human liver microsome (0.5 mg protein/mL), EDTA (0.05 mmol/L) and Na—K phosphate buffer (pH 7.4, 0.1 mol/L)] was prepared and, after preincubation at 37° C. for 5 min, a solution of the NADPH generating system was added thereto to start the reaction.
as §3, with “To the residue was added a predetermined amount of HPLC mobile phase or suitable solvent, and the mixture was stirred and used as an HPLC sample. The sample was injected into HPLC and a radiochromatogram was obtained.” left out

In data set [8] the target is T3, CYP2C8 (Homo sapiens, UniProt P10632).
T3 sequence (P10632 1-490): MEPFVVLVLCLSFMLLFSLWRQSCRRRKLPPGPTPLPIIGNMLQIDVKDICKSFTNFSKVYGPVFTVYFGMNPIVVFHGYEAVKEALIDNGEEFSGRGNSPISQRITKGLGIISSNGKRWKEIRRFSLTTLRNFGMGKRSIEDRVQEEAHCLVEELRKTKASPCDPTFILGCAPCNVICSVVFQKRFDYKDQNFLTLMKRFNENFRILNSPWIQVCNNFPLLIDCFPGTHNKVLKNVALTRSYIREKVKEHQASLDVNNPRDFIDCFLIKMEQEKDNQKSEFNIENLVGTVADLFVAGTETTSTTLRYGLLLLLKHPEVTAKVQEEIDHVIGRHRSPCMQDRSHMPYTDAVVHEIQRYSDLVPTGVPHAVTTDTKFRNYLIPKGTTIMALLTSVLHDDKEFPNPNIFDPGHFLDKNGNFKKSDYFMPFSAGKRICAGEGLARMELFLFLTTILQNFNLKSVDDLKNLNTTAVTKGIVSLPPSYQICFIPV
The data set is described as follows: Metabolizing isoform identification test, microsome expressing CYP2C8. The class given is in vitro ADME. Conditions: microsome expressing CYP at 50 pmol CYP/mL, 2 μmol/L, 37° C., 20 min. How it is done: as §1, §2, §4

The subject of data set [9] is high cholesterol diet-treated rat. Description: Influence on serum lipid of high cholesterol diet-treated rat. Conditions: once a day for 5 days, high cholesterol diet rats. Format: in vivo, SD rats. How it is done:
2) Influence on Serum Lipid of High Cholesterol Diet-Treated Rat
8-week-old male SD rats (manufactured by SEAC Yoshitomi, Ltd.) were raised on a standard diet CE-2 (manufactured by Japan Clea, Inc.) added with 1% cholesterol, 2% olive oil and 0.2% cholic acid, from one week before test compound administration to the last day of the administration. A test compound and a control compound (GW-9578) were dissolved or suspended in 1% ethanol and 0.05% Tween80 (final concentration), and 0.5% hydroxypropylmethyl cellulose (HPMC) was added to adjust to a given concentration. The prepared solution was orally administered once a day for 5 days. After administration for 5 days, blood samples were collected from the jugular vein under non-fasting condition and blood lipid was measured by an enzyme method. The lowering rate was calculated by determining the rate of a value obtained by subtracting the average blood TG (or average blood TC) of a drug administration group from the average blood triglyceride (TG) (or average blood total cholesterol (TC)) of a vehicle administration group, to the average blood TG (or average blood TC) of the vehicle administration group.

T2 sequence (P11712 whole entry, canonical isoform): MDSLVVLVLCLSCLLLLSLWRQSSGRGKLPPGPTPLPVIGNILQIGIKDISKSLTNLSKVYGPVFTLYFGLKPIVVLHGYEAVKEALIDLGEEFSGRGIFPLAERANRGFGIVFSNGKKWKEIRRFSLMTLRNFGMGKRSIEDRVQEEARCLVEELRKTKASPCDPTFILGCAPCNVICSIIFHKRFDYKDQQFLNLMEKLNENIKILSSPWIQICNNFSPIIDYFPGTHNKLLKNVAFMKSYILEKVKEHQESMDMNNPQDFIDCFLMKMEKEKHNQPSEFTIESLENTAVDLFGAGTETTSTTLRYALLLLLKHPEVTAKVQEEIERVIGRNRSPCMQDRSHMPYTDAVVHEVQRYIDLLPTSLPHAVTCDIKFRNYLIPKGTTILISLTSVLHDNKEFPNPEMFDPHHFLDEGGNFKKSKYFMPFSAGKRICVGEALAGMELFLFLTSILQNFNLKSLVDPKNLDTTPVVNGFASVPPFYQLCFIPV
Chain of CYP3A4 (P08684 whole entry, canonical isoform): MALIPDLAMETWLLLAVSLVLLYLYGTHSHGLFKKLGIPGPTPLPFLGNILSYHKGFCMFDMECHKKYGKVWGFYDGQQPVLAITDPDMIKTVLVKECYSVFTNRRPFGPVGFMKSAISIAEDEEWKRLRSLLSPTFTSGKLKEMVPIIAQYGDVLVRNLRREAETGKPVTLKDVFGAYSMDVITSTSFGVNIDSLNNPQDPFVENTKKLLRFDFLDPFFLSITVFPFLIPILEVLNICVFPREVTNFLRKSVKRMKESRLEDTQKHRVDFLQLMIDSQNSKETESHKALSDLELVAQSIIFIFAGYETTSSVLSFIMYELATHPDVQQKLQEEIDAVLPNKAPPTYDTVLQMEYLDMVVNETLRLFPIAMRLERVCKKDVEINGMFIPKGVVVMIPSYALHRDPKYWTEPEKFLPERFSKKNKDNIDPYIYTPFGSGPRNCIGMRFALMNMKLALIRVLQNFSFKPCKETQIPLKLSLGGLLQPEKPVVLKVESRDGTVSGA
Chain of CYP2C19 (P33261 whole entry, canonical isoform): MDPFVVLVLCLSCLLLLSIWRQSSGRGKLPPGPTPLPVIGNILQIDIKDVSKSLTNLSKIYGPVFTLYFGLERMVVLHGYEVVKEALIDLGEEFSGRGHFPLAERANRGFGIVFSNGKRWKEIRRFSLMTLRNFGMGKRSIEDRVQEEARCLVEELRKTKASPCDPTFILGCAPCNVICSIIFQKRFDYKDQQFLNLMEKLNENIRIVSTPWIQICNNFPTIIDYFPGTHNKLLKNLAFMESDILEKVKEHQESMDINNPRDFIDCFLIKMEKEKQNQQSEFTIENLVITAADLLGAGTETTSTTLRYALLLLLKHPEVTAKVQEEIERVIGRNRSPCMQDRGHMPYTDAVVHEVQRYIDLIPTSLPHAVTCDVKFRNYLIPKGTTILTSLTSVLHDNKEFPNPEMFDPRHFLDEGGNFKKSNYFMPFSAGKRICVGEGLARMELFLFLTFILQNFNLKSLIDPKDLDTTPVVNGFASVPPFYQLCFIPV

Turning to `CC(C)(Sc1nc([C@H](O)COc2ccc(-c3ccc(F)cc3)cc2)cs1)C(=O)O` [Example 12, 2-[(4-{(1S)-2-[(4′-fluorobiphenyl-4-yl)oxy]-1-hydroxyethyl}-1,3-thiazol-2-yl)thio]-2-methylpropionic acid], in data set [1], the EC50 amounted to 3.1 nmol/L. Further, in [1] (compared with compound A (10.41 nmol/l)), the “transcription activation activity relative to compound A (times stronger)” value was at least 3 times. Further, the TG-lowering action in [2] is 15.1%. Also, the TG lowering rate in data set [2] (0.1 mg/kg) is reported as 52%. In data set [3], the “oxidative metabolism by human liver microsome” value is reported as “could not be confirmed”. The “involvement in the metabolism by CYP” value in data set [3] (summary statement in description) is given as “not involved in the metabolism by CYP”.

`CC(C)(Sc1nc(C(=O)COc2ccc(-c3ccc(F)cc3)cc2)cs1)C(=O)O` [Example 3, 2-[(4-{[(4′-fluorobiphenyl-4-yl)oxy]acetyl}-1,3-thiazol-2-yl)thio]-2-methylpropionic acid]: in data set [1], the EC50 was determined as 4.7 nmol/L.

For `CC(C)(Sc1nc(CCOc2ccc(-c3ccc(F)cc3)cc2)cs1)C(=O)O` [compound A, 2-[(4-{2-[(4′-fluorobiphenyl-4-yl)oxy]ethyl}-1,3-thiazol-2-yl)thio]-2-methylpropionic acid], the “metabolism by CYP2C9” value in [4] is reported as “mainly metabolized by CYP2C9”. In addition, the “metabolism by CYP3A4” value in data set [5] is “also metabolized”. The EC50 in data set [1] was determined as 10.4 nmol/L. Moreover, the “metabolism by CYP2C19” value in data set [6] is “also metabolized”. Also, the “enzyme mainly involved in the metabolism (investigation using the inhibitor)” value in [7] was “CYP2C9”. This compound yielded a TG-lowering action in [2] of 0.7%. Moreover, in data set [3], the “oxidative metabolism by human liver microsome” value is “observed”. Further, in data set [8], the “metabolism by CYP2C8” value is on record as “also metabolized”.

Take `CCCCCCCN(CCc1ccc(SC(C)(C)C(=O)O)cc1)C(=O)Nc1ccc(F)cc1F` [GW-9578]: the “TG lowering rate (%, 0.3 mg/kg, p.o.) TG” value in [9] (first column) and in data set [9] (second column) was 30-50% in each case. Moreover, the TG lowering rate in data set [2] (0.3 mg/kg) is 50-60%.

As to `CC(C)(Sc1nc(C(O)COc2ccc(-c3ccc(F)cc3)cc2)cs1)C(=O)O` (stereo not shown) [Example 2, 2-[(4-{2-[(4′-fluorobiphenyl-4-yl)oxy]-1-hydroxyethyl}-1,3-thiazol-2-yl)thio]-2-methylpropionic acid], the entries for the “TG lowering rate (%, 0.3 mg/kg, p.o.) TG” value in data set [9] (first column) and in [9] (second column) were 38% and 34%, respectively. Further, in data set [1], the EC50 was determined as 8.4 nmol/L. Besides, in data set [2] (0.3 mg/kg), the TG lowering rate is given as 56%.

Source of the values: patent US8497382B2, “Carboxylic acid derivative containing thiazole ring and pharmaceutical use thereof” (Mitsubishi Tanabe Pharma Corporation, priority 2008, dated 2013).
